Data published in ChEMBL document CHEMBL3045679, “Microwave-assisted synthesis and pharmacological studies of novel 5-deazaalloxazine derivatives” (2012).
Values after ≈ are worked out from the molar mass of the structure shown. Active and inactive are the calls of the source. The rule behind the calls is not given here.

Legend:
[1] = system: Lipomyces lipofer; test: Antifungal activity against Lipomyces lipofer NCIM 3252 at 1000 ug/disk after 72 hr by disk diffusion method; format: functional; details: for zone of inhibition at 1000 µg/disc: NCIM 3252, 72 h, read-out: DIZ
[2] = system: Lipomyces lipofer; test: Antifungal activity against Lipomyces lipofer NCIM 3252 at 500 ug/disk after 72 hr by disk diffusion method; format: functional; details: for zone of inhibition at 500 µg/disc: NCIM 3252, 72 h, read-out: DIZ
[3] = system: Candida albicans; test: Antifungal activity against Candida albicans NCIM 3471 at 1000 ug/disk after 72 hr by disk diffusion method; format: functional; details: for zone of inhibition at 1000 µg/disc: NCIM 3471, 72 h, read-out: DIZ
[4] = system: Candida albicans; test: Antifungal activity against Candida albicans NCIM 3471 at 500 ug/disk after 72 hr by disk diffusion method; format: functional
[5] = system: Rhodotorula mucilaginosa; test: Antifungal activity against Rhodotorula mucilaginosa NCIM 3174 at 1000 ug/disk after 72 hr by disk diffusion method; format: functional; details: for zone of inhibition at 1000 µg/disc: NCIM 3174, 72 h, read-out: DIZ
[6] = system: Rhodotorula mucilaginosa; test: Antifungal activity against Rhodotorula mucilaginosa NCIM 3174 at 500 ug/disk after 72 hr by disk diffusion method; format: functional
[7] = system: Aspergillus flavus; test: Antifungal activity against Aspergillus flavus NCIM 535 at 1000 ug/disk after 72 hr by disk diffusion method; format: functional; details: NCIM 535, 72 h, read-out: DIZ
[8] = system: Aspergillus flavus; test: Antifungal activity against Aspergillus flavus NCIM 535 at 500 ug/disk after 72 hr by disk diffusion method; format: functional
[9] = system: Aspergillus niger; test: Antifungal activity against Aspergillus niger NCIM 1196 at 1000 ug/disk after 72 hr by disk diffusion method; format: functional; details: NCIM 1196, 72 h, read-out: DIZ
[10] = system: Aspergillus niger; test: Antifungal activity against Aspergillus niger NCIM 1196 at 500 ug/disk after 72 hr by disk diffusion method; format: functional; details: for zone of inhibition at 500 µg/disc: NCIM 1196, 72 h, read-out: DIZ
[11] = system: Penicillium chrysogenum; test: Antifungal activity against Penicillium chrysogenum NCIM 707 at 1000 ug/disk after 72 hr by disk diffusion method; format: functional; details: for zone of inhibition at 1000 µg/disc: NCIM 707, 72 h, read-out: DIZ
[12] = system: Penicillium chrysogenum; test: Antifungal activity against Penicillium chrysogenum NCIM 707 at 500 ug/disk after 72 hr by disk diffusion method; format: functional
[13] = system: Streptomyces albus; test: Antibacterial activity against Streptomyces albus NCIM 2178 at 1000 ug/disk after 24 hr by disk diffusion method; format: functional
[14] = system: Streptomyces albus; test: Antibacterial activity against Streptomyces albus NCIM 2178 at 500 ug/disk after 24 hr by disk diffusion method; format: functional, organism-based
[15] = system: Bacillus cereus; test: Antibacterial activity against Bacillus cereus NCIM 2155 at 1000 ug/disk after 24 hr by disk diffusion method; format: functional; details: NCIM 2155, 24 h, read-out: DIZ
[16] = system: Bacillus cereus; test: Antibacterial activity against Bacillus cereus NCIM 2155 at 500 ug/disk after 24 hr by disk diffusion method; format: functional; details: for zone of inhibition at 500 µg/disc: NCIM 2155, 24 h, read-out: DIZ
[17] = system: Bacillus subtilis; test: Antibacterial activity against Bacillus subtilis NCIM 2063 at 1000 ug/disk after 24 hr by disk diffusion method; format: functional; details: NCIM 2063, 24 h, read-out: DIZ
[18] = system: Bacillus subtilis; test: Antibacterial activity against Bacillus subtilis NCIM 2063 at 500 ug/disk after 24 hr by disk diffusion method; format: functional
[19] = system: Klebsiella aerogenes; test: Antibacterial activity against Enterobacter aerogenes NCIM 2239 at 1000 ug/disk after 24 hr by disk diffusion method; format: functional; details: NCIM 2239, 24 h, read-out: DIZ
[20] = system: Klebsiella aerogenes; test: Antibacterial activity against Enterobacter aerogenes NCIM 2239 at 500 ug/disk after 24 hr by disk diffusion method; format: functional; details: for zone of inhibition at 500 µg/disc: NCIM 2239, 24 h, read-out: DIZ
[21] = system: Pseudomonas aeruginosa; test: Antibacterial activity against Pseudomonas aeruginosa NCIM 2200 at 1000 ug/disk after 24 hr by disk diffusion method; format: functional; details: NCIM 2200, 24 h, read-out: DIZ
[22] = system: Pseudomonas aeruginosa; test: Antibacterial activity against Pseudomonas aeruginosa NCIM 2200 at 500 ug/disk after 24 hr by disk diffusion method; format: functional; details: for zone of inhibition at 500 µg/disc: NCIM 2200, 24 h, read-out: DIZ
[23] = system: Escherichia coli; test: Antibacterial activity against Escherichia coli NCIM 2065 at 1000 ug/disk after 24 hr by disk diffusion method; format: functional; details: NCIM 2065, 24 h, read-out: DIZ
[24] = system: Escherichia coli; test: Antibacterial activity against Escherichia coli NCIM 2065 at 500 ug/disk after 24 hr by disk diffusion method; format: functional; details: for zone of inhibition at 500 µg/disc: NCIM 2065, 24 h, read-out: DIZ
[25] = system: Bacillus subtilis; test: Antibacterial activity against Bacillus subtilis NCIM 2063 after 24 hr by broth dilution assay; format: functional; details: NCIM 2063, 24 h
[26] = system: Klebsiella aerogenes; test: Antibacterial activity against Enterobacter aerogenes NCIM 2239 after 24 hr by broth dilution assay; format: functional; details: NCIM 2239, 24 h
[27] = system: Pseudomonas aeruginosa; test: Antibacterial activity against Pseudomonas aeruginosa NCIM 2200 after 24 hr by broth dilution assay; format: functional; details: NCIM 2200, 24 h
[28] = system: Escherichia coli; test: Antibacterial activity against Escherichia coli NCIM 2065 after 24 hr by broth dilution assay; format: functional; details: NCIM 2065, 24 h
[29] = system: Lipomyces lipofer; test: Antifungal activity against Lipomyces lipofer NCIM 3252 after 72 hr by broth dilution assay; format: functional; details: NCIM 3252, 72 h
[30] = system: Aspergillus niger; test: Antifungal activity against Aspergillus niger NCIM 1196 after 72 hr by broth dilution assay; format: functional; details: NCIM 1196, 72 h
[31] = system: Bacillus cereus; test: Antibacterial activity against Bacillus cereus NCIM 2155 after 24 hr by broth dilution assay; format: functional; details: NCIM 2155, 24 h
[32] = system: Candida albicans; test: Antifungal activity against Candida albicans NCIM 3471 after 72 hr by broth dilution assay; format: functional; details: NCIM 3471, 72 h
[33] = system: Rhodotorula mucilaginosa; test: Antifungal activity against Rhodotorula mucilaginosa NCIM 3174 after 72 hr by broth dilution assay; format: functional; details: NCIM 3174, 72 h

SMILES	diameter of the inhibition zone (DIZ) [4]	zone of inhibition at 1000 µg/disc [5] [mm]	diameter of the inhibition zone (DIZ) [6]	zone of inhibition at 1000 µg/disc [7] [mm]	diameter of the inhibition zone (DIZ) [8]	zone of inhibition at 1000 µg/disc [9] [mm]	diameter of the inhibition zone (DIZ) [12]	diameter of the inhibition zone (DIZ) [14]	zone of inhibition at 1000 µg/disc [15] [mm]	zone of inhibition at 500 µg/disc [16] [mm]	zone of inhibition at 1000 µg/disc [17] [mm]	zone of inhibition at 1000 µg/disc [19] [mm]	zone of inhibition at 1000 µg/disc [21] [mm]	zone of inhibition at 1000 µg/disc [23] [mm]	MIC [25] [µg/mL]	MIC [26] [µg/mL]	MIC [27] [µg/mL]	MIC [28] [µg/mL]	MIC [30] [µg/mL]	MIC [31] [µg/mL]	further results
Cc1ccc2nc3[nH]c(=S)[nH]c(=O)c3cc2c1	inactive	9	inactive	8	inactive	14	inactive	inactive	10	8	12	13	12	11	31.2 (≈ 128 µM)	7.8 (≈ 32.1 µM)	62.5 (≈ 257 µM)	31.2 (≈ 128 µM)	3.9 (≈ 16 µM)	62.5 (≈ 257 µM)	zone of inhibition at 1000 µg/disc [1]: 10 mm; zone of inhibition at 500 µg/disc [2]: 9 mm; diameter of the inhibition zone (DIZ) [3]: inactive; zone of inhibition at 500 µg/disc [10]: 11 mm; diameter of the inhibition zone (DIZ) [11]: inactive; zone of inhibition at 1000 µg/disc ([13]; NCIM 2178, 24 h, read-out: DIZ): 9 mm; diameter of the inhibition zone (DIZ) [18]: inactive; zone of inhibition at 500 µg/disc [20]: 9 mm; diameter of the inhibition zone (DIZ) [22]: inactive; zone of inhibition at 500 µg/disc [24]: 9 mm; MIC [29]: 62.5 µg/mL (≈ 257 µM)
O=c1[nH]c(=S)[nH]c2nc3ccc(Cl)cc3cc12	inactive	12	inactive	10	inactive	14	inactive	inactive	13	9	14	10	13	10	3.9 (≈ 14.8 µM)	31.2 (≈ 118 µM)	7.8 (≈ 29.6 µM)	62.5 (≈ 237 µM)	3.9 (≈ 14.8 µM)	62.5 (≈ 237 µM)	zone of inhibition at 1000 µg/disc [1]: 15 mm; zone of inhibition at 500 µg/disc [2]: 9 mm; zone of inhibition at 1000 µg/disc [3]: 11 mm; zone of inhibition at 500 µg/disc [10]: 11 mm; zone of inhibition at 1000 µg/disc [11]: 10 mm; diameter of the inhibition zone (DIZ) [13]: inactive; zone of inhibition at 500 µg/disc ([18]; NCIM 2063, 24 h, read-out: DIZ): 11 mm; zone of inhibition at 500 µg/disc [20]: 8 mm; zone of inhibition at 500 µg/disc [22]: 10 mm; zone of inhibition at 500 µg/disc [24]: 8 mm; MIC [29]: 7.8 µg/mL (≈ 29.6 µM)
COc1cccc2cc3c(=O)[nH]c(=O)[nH]c3nc12	inactive	10	–	8	inactive	11	inactive	inactive	12	–	10	8	10	12	62.5 (≈ 257 µM)	62.5 (≈ 257 µM)	62.5 (≈ 257 µM)	7.8 (≈ 32.1 µM)	125 (≈ 514 µM)	31.5 (≈ 130 µM)	diameter of the inhibition zone (DIZ) [1]: inactive; diameter of the inhibition zone (DIZ) [2]: inactive; zone of inhibition at 1000 µg/disc [3]: 12 mm; zone of inhibition at 500 µg/disc ([6]; NCIM 3174, 72 h, read-out: DIZ): 8 mm; diameter of the inhibition zone (DIZ) [10]: inactive; zone of inhibition at 1000 µg/disc [11]: 8 mm; diameter of the inhibition zone (DIZ) [13]: inactive; diameter of the inhibition zone (DIZ) [16]: inactive; diameter of the inhibition zone (DIZ) [18]: inactive; diameter of the inhibition zone (DIZ) [20]: inactive; diameter of the inhibition zone (DIZ) [22]: inactive; diameter of the inhibition zone (DIZ) [24]: inactive; MIC [32]: 125 µg/mL (≈ 514 µM); MIC [33]: 31.2 µg/mL (≈ 128 µM)
O=c1[nH]c(=O)c2cc3cc(Br)ccc3nc2[nH]1	inactive	–	inactive	11	inactive	12	inactive	inactive	11	8	12	10	12	11	31.2 (≈ 107 µM)	62.5 (≈ 214 µM)	31.2 (≈ 107 µM)	7.8 (≈ 26.7 µM)	62.5 (≈ 214 µM)	62.5 (≈ 214 µM)	diameter of the inhibition zone (DIZ) [1]: inactive; diameter of the inhibition zone (DIZ) [2]: inactive; diameter of the inhibition zone (DIZ) [3]: inactive; diameter of the inhibition zone (DIZ) [5]: inactive; diameter of the inhibition zone (DIZ) [10]: inactive; diameter of the inhibition zone (DIZ) [11]: inactive; diameter of the inhibition zone (DIZ) [13]: inactive; diameter of the inhibition zone (DIZ) [18]: inactive; diameter of the inhibition zone (DIZ) [20]: inactive; zone of inhibition at 500 µg/disc [22]: 9 mm; zone of inhibition at 500 µg/disc [24]: 7 mm
